24 compounds from US11891387B2, “Monoacylglycerol lipase modulators” (Janssen Pharmaceutica NV, priority 2020, dated 2024) can be followed below.

In general, IC50 refers to the concentration needed to halve the response being measured. Low values mean greater potency, high ones weaker potency.

human MGL from HeLa cells, sequence (Q99685 whole entry): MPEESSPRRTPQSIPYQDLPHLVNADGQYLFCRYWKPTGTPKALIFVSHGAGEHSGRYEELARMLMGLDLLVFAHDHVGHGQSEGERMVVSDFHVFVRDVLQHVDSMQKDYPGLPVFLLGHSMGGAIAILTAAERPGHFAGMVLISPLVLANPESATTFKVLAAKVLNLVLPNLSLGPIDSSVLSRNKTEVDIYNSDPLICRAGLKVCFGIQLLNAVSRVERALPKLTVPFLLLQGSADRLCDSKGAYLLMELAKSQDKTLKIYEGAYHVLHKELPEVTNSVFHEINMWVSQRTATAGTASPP

The target of this assay is human MGL from HeLa cells (Homo sapiens (Human), UniProt Q99685). In words: MGL in vitro activity assay: cleavage of [glycerol-1,3-3H]-oleyl glycerol, activated carbon filtration. To be noted: 300 nM [Glycerol-1,3-3H]-oleyl glycerol, endogenously expressed MGL from HeLa cells, one hour incubation. The format is biochemical. The protocol:
The assay used to measure the in vitro activity of MGL is adapted from the assay used for another serine hydrolase (FAAH) described in Wilson et al., 2003 (A high-throughput-compatible assay for determining the activity of fatty acid amide hydrolase. Wilson S J, Lovenberg T W, Barbier A J. Anal Biochem. 2003 Jul. 15; 318(2):270-5.). The assay consists of combining endogenously expressed MGL from HeLa cells with test compounds, adding [glycerol-1,3-^3H]-oleyl glycerol, incubating for one hour, and then measuring the amount of cleaved [1,3-^3H]-glycerol that passes through an activated carbon filter. The amount of cleaved, tritiated glycerol passing through the carbon filter is proportional to the activity of the MGL enzyme in a particular well/test condition.
Standard conditions for this assay combine 300 nM [Glycerol-1,3-^3H]-oleyl glycerol with human MGL from HeLa cells and test compounds for one hour, after which the reaction is filtered through activated carbon and tritium is measured in the flow through. The test compound concentration in screening mode is 10 μM, while the highest compound concentration in IC50 assays is determined empirically. MGL is the predominant hydrolase in HeLa cells/cell homogenates.
In the case of `C[C@H]1c2nn(C)c(-c3cc(C(F)(F)F)nn3C)c2CCN1C(=O)c1ccnc2c1ccn2CC(F)(F)F` [Example 12, (S)-(2,7-Dimethyl-3-(1-methyl-3-(trifluoromethyl)-1H-pyrazol-5-yl)-2,4,5,7-tetrahydro-6H-pyrazolo[3,4-c]pyridin-6-yl)(1-(2,2,2-trifluoroethyl)-1H-pyrrolo[2,3-b]pyridin-4-yl)methanone], the IC50 came out at 100 nM.

As to `CCn1nc(C(F)(F)F)cc1-c1c2c(nn1C)[C@@H]1CCC[C@H](C2)N1C(=O)c1cccc(C)c1` [Example 78, ((5R,9S)-3-(1-Ethyl-3-(trifluoromethyl)-1H-pyrazol-5-yl)-2-methyl-4,5,6,7,8,9-hexahydro-2H-5,9-epiminocycloocta[c]pyrazol-10-yl)(m-tolyl)methanone], the IC50 came to 160 nM.

Compound `Cc1cc(C(=O)N2CCc3c(nn(C)c3-c3cc(C(F)(F)F)nn3C)[C@@H]2C)c2cc(F)ccc2n1` [Example 10, (S)-(2,7-Dimethyl-3-(1-methyl-3-(trifluoromethyl)-1H-pyrazol-5-yl)-2,4,5,7-tetrahydro-6H-pyrazolo[3,4-c]pyridin-6-yl)(6-fluoro-2-methylquinolin-4-yl)methanone] registered a concentration for half-maximal inhibition (IC50) of 18 nM.

`Cc1ccc2c(C(=O)N3[C@@H]4CCC[C@H]3c3nn(C)c(-c5cc(C(F)(F)F)nn5C)c3C4)nccc2n1` [Example 82, (2-Methyl-1,6-naphthyridin-5-yl)((5R,9S)-2-methyl-3-(1-methyl-3-(trifluoromethyl)-1H-pyrazol-5-yl)-4,5,6,7,8,9-hexahydro-2H-5,9-epiminocycloocta[c]pyrazol-10-yl)methanone] displayed an IC50 of 74 nM.

As to `Cc1ccc(C(=O)N2CCc3c(nn(C)c3-c3cnn(C)c3C(F)(F)F)[C@@H]2C)c(F)c1` [Example 30, (S)-(2,7-Dimethyl-3-(1-methyl-5-(trifluoromethyl)-1H-pyrazol-4-yl)-2,4,5,7-tetrahydro-6H-pyrazolo[3,4-c]pyridin-6-yl)(2-fluoro-4-methylphenyl)methanone], inhibition was half-maximal at 3070 nM (IC50).

`C[C@H]1c2nn(C)c(-c3ccn(C(F)F)n3)c2CCN1C(=O)c1ccc2ncccc2c1` [Example 67, (S)-(3-(1-(Difluoromethyl)-1H-pyrazol-3-yl)-2,7-dimethyl-2,4,5,7-tetrahydro-6H-pyrazolo[3,4-c]pyridin-6-yl)(quinolin-6-yl)methanone] came in with an IC50 of 1340 nM.

Compound `C[C@H]1c2nn(C)c(-c3cnn(C(F)F)c3)c2CCN1C(=O)c1ccc2ncccc2c1` [Example 69, (S)-(3-(1-(Difluoromethyl)-1H-pyrazol-4-yl)-2,7-dimethyl-2,4,5,7-tetrahydro-6H-pyrazolo[3,4-c]pyridin-6-yl)(quinolin-6-yl)methanone] had an IC50 of 89 nM.

Take `C[C@H]1c2nn(C)c(-c3cc(C(F)(F)F)nn3C)c2CCN1C(=O)c1ccnc2c1ccn2C` [Example 46, (S)-(2,7-Dimethyl-3-(1-methyl-3-(trifluoromethyl)-1H-pyrazol-5-yl)-2,4,5,7-tetrahydro-6H-pyrazolo[3,4-c]pyridin-6-yl)(1-methyl-1H-pyrrolo[2,3-b]pyridin-4-yl)methanone]: the IC50 worked out at 5.7 nM.

`Cn1nc(C(F)(F)F)cc1-c1c2c(nn1C)[C@@H]1CCC[C@H](C2)N1C(=O)c1nn(C)c2ncccc12` [Example 85, (1-Methyl-1H-pyrazolo[3,4-b]pyridin-3-yl)((5R,9S)-2-methyl-3-(1-methyl-3-(trifluoromethyl)-1H-pyrazol-5-yl)-4,5,6,7,8,9-hexahydro-2H-5,9-epiminocycloocta[c]pyrazol-10-yl)methanone] returned an IC50 of 64 nM.

In turn, `C[C@H]1c2nn(C)c(-c3cc(C(F)(F)F)nn3C)c2CCN1C(=O)c1ccc2ncccc2c1` [Example 65, (S)-(2,7-Dimethyl-3-(1-methyl-3-(trifluoromethyl)-1H-pyrazol-5-yl)-2,4,5,7-tetrahydro-6H-pyrazolo[3,4-c]pyridin-6-yl)(quinolin-6-yl)methanone] showed an IC50 of 39 nM.

Compound `Cc1cccn2ncc(C(=O)N3CCc4c(nn(C)c4-c4cc(C(F)(F)F)nn4C)[C@@H]3C)c12` [Example 7, (S)-(2,7-Dimethyl-3-(1-methyl-3-(trifluoromethyl)-1H-pyrazol-5-yl)-2,4,5,7-tetrahydro-6H-pyrazolo[3,4-c]pyridin-6-yl)(4-methylpyrazolo[1,5-a]pyridin-3-yl)methanone] gave a half-inhibitory concentration (IC50) of 50 nM.

`Cn1nc(C(F)(F)F)cc1-c1c2c(nn1C)[C@@H]1CCC[C@H](C2)N1C(=O)c1cnc2cccc(F)c2c1` [Example 83, (5-Fluoroquinolin-3-yl)((5R,9S)-2-methyl-3-(1-methyl-3-(trifluoromethyl)-1H-pyrazol-5-yl)-4,5,6,7,8,9-hexahydro-2H-5,9-epiminocycloocta[c]pyrazol-10-yl)methanone] registered an IC50 of 40 nM.

`C[C@H]1c2nn(C)c(-c3cnn(C)c3)c2CCN1C(=O)c1ccc2ncccc2c1` [Example 62, (S)-(2,7-Dimethyl-3-(1-methyl-1H-pyrazol-4-yl)-2,4,5,7-tetrahydro-6H-pyrazolo[3,4-c]pyridin-6-yl)(quinolin-6-yl)methanone] registered an IC50 of 1940 nM.

As to `COc1cccc(C(=O)N2CCc3c(nn(C)c3-c3cnn(C)c3C(F)(F)F)[C@@H]2C)c1Cl` [Example 51, (S)-(2-Chloro-3-methoxyphenyl)(2,7-dimethyl-3-(1-methyl-5-(trifluoromethyl)-1H-pyrazol-4-yl)-2,4,5,7-tetrahydro-6H-pyrazolo[3,4-c]pyridin-6-yl)methanone], the 50% inhibitory concentration (IC50) stood at 890 nM.

`COc1cc(C(=O)N2CCc3c(nn(C)c3-c3cc(C(F)(F)F)n(C)n3)[C@@H]2C)c2ccccc2n1` [Example 20, (S)-(2,7-Dimethyl-3-(1-methyl-5-(trifluoromethyl)-1H-pyrazol-3-yl)-2,4,5,7-tetrahydro-6H-pyrazolo[3,4-c]pyridin-6-yl)(2-methoxyquinolin-4-yl)methanone] yielded an IC50 of 8.2 nM.

The compound `COc1cccc(C(=O)N2CCc3c(nn(C)c3-c3cc(C(F)(F)F)nn3C)[C@@H]2C)c1` [Example 38, (S)-(2,7-Dimethyl-3-(1-methyl-3-(trifluoromethyl)-1H-pyrazol-5-yl)-2,4,5,7-tetrahydro-6H-pyrazolo[3,4-c]pyridin-6-yl)(3-methoxyphenyl)methanone] gave a half-inhibitory concentration (IC50) of 73 nM.

`C[C@H]1c2nn(C)c(-c3cc(C(F)(F)F)nn3C)c2CCN1C(=O)c1cnn2cccc(F)c12` [Example 11, (S)-(2,7-Dimethyl-3-(1-methyl-3-(trifluoromethyl)-1H-pyrazol-5-yl)-2,4,5,7-tetrahydro-6H-pyrazolo[3,4-c]pyridin-6-yl)(4-fluoropyrazolo[1,5-a]pyridin-3-yl)methanone] had an IC50 of 6.2 nM.

`C[C@H]1c2nn(C)c(-c3cn(C)nc3C(F)(F)F)c2CCN1C(=O)c1ccc2c(c1)OCCC2` [Example 61, (S)-Chroman-7-yl(2,7-dimethyl-3-(1-methyl-3-(trifluoromethyl)-1H-pyrazol-4-yl)-2,4,5,7-tetrahydro-6H-pyrazolo[3,4-c]pyridin-6-yl)methanone] gave an IC50 of 7180 nM.

`C[C@H]1c2nn(C)c(-c3cnn(C)c3C(F)(F)F)c2CCN1C(=O)c1ccnc2c1cnn2C` [Example 32, (S)-(2,7-Dimethyl-3-(1-methyl-5-(trifluoromethyl)-1H-pyrazol-4-yl)-2,4,5,7-tetrahydro-6H-pyrazolo[3,4-c]pyridin-6-yl)(1-methyl-1H-pyrazolo[3,4-b]pyridin-4-yl)methanone] showed a half-inhibitory concentration (IC50) of 4560 nM.

With `COc1nccc(C(=O)N2CCc3c(nn(C)c3-c3cc(C(F)(F)F)n(C)n3)[C@@H]2C)c1C` [Example 121, (S)-(2,7-Dimethyl-3-(1-methyl-5-(trifluoromethyl)-1H-pyrazol-3-yl)-2,4,5,7-tetrahydro-6H-pyrazolo[3,4-c]pyridin-6-yl)(2-methoxy-3-methylpyridin-4-yl)methanone], half-maximal inhibition (IC50) required 83 nM.

`Cc1cc(C(=O)N2CCc3c(nn(C)c3-c3cc(C(F)(F)F)nn3C)[C@@H]2C)c2ccccc2n1` [Example 9, (S)-(2,7-Dimethyl-3-(1-methyl-3-(trifluoromethyl)-1H-pyrazol-5-yl)-2,4,5,7-tetrahydro-6H-pyrazolo[3,4-c]pyridin-6-yl)(2-methylquinolin-4-yl)methanone] returned a half-maximal inhibitory concentration (IC50) of 12 nM.

Consider `COc1cccc(C(=O)N2CCc3c(nn(C)c3-c3c(C(F)(F)F)nn(C)c3C)[C@@H]2C)c1C` [Example 3, (S)-(3-(1,5-Dimethyl-3-(trifluoromethyl)-1H-pyrazol-4-yl)-2,7-dimethyl-2,4,5,7-tetrahydro-6H-pyrazolo[3,4-c]pyridin-6-yl)(3-methoxy-2-methylphenyl)methanone], for which the IC50 turned out to be 6700 nM.

Compound `C[C@H]1c2nn(C)c(-c3cc(C(F)(F)F)nn3C)c2CCN1C(=O)c1c(F)cnc2c1ccn2C` [Example 47, (S)-(2,7-Dimethyl-3-(1-methyl-3-(trifluoromethyl)-1H-pyrazol-5-yl)-2,4,5,7-tetrahydro-6H-pyrazolo[3,4-c]pyridin-6-yl)(5-fluoro-1-methyl-1H-pyrrolo[2,3-b]pyridin-4-yl)methanone] came in with an IC50 of 0.67 nM.

With `Cc1cc(C(=O)N2[C@@H]3CCC[C@H]2c2nn(C)c(-c4cc(C(F)(F)F)n(C)n4)c2C3)c2cc(F)ccc2n1` [Example 88, (6-Fluoro-2-methylquinolin-4-yl)((5R,9S)-2-methyl-3-(1-methyl-5-(trifluoromethyl)-1H-pyrazol-3-yl)-4,5,6,7,8,9-hexahydro-2H-5,9-epiminocycloocta[c]pyrazol-10-yl)methanone], the midpoint of inhibition, the IC50, lay at 6.6 nM.
